Measured values taken from patent US20220031680A1, “Donecopride As Neuroprotective Agent In the Treatment of Neurodegenerative Diseases” (priority 2018, published 2022).

System: C57Bl6/J mice challenged with an intracerebroventricular injection of Aβ1-42 oligomers (AβO)
Assay: Y-maze test (spatial working memory) in mice icv injected with AβO
Assay type: in vivo, mouse
Conditions: day +4
Method: Briefly, 144 C57Bl6/J male mice (3 months of age) were received and housed (4 to 5 per cage) in quarantine during 7 days, or longer. Test items were dosed per os (through oral gavage) once daily at different concentrations from day −1 to day +17.
At day 0, mice received a single icv injection of vehicle or AβO.
At day +4 (i.e. four days after disease induction), spatial working memory was assessed using the Y-maze test.
The different experimental groups are defined as follow: • GROUP A (vehicle CTRL): po vehicle AND icv injection of vehicle (n=12) • GROUP B (APO CTRL): po vehicle AND icv injection of AβO (n=12) • GROUP C (positive CTRL): po Donepezil subchronic AND icv injection of AβO (n=12) • GROUP D (Donecopride CTRL): po Donecopride (9 mg/kg) AND icv injection of vehicle (n=12) • GROUP E (Flucopride CTRL): po Flucopride (9 mg/kg) AND icv injection of vehicle (n=12) • GROUP F (Donecopride Treated): po Donecopride (1 mg/kg) AND icv injection of AβO (n=12) • GROUP G (Donecopride Treated): po Donecopride (3 mg/kg) AND icv injection of AβO (n=12) • GROUP H (Donecopride Treated): po Donecopride (9 mg/kg) AND icv injection of AβO (n=12) • GROUP I (Fluocopride Treated): po Flucopride (1 mg/kg) AND icv injection of AβO (n=12) • GROUP J (Flucopride Treated): po Flucopride (3 mg/kg) AND icv injection of AβO (n=12) • GROUP K (Flucopride Treated): po Flucopride (9 mg/kg) AND icv injection of AβO (n=12) • GROUP L (positive CTRL): ip Donepezil acute on test days AND icv injection of AβO (n=12)
For per os dosing, Donecopride and Flucopride were formulated by solubilization in 0.9% NaCl. Compound dosing (total volume of 200 μL) started one day before induction of the disease (through icv injection of AβO) and was done for 19 consecutive days.
Single intra-cerebroventricular injection of 144 mice with vehicle or APO (max. 24 mice per day, all mice randomized): under anesthesia (ip injection of a mixture of ketamine/xylasine at a dose of 110 and 15 mg/kg, respectively) AβO (1 μL), or vehicle (1 μL) were injected into the right lateral ventricle. Injections were made using 10 μL Hamilton micro syringes fitted with a 26-gauge needle. The procedure was terminated by a subcutaneous injection of metacam (analgesia) at a dose of 5 mg/kg. Animals were then placed individually in their home-cage and the cage was placed in a heated cabinet until the animal has fully recovered. Animals were carefully monitored to control recovery after anesthesia.
Preparation of APO: Aβ1-42 was obtained from Bachem (ref H1368) (batch number: 1052301). The preparation of stable Aβ1-42 oligomers was performed as described in Garcia et al. (2010) J. Neurosci. 30:7516-7527. The oligomeric preparation (identified as Batch #2016-14) contained a mixture of stable trimers and tetramers of Aβ1-42, as well as monomeric forms of the peptide. All oligomer preparations used were previously characterized in terms of oligomer composition and in vitro neurotoxicity.
6 independent trials involving each 24 mice (i.e. 2 mice from each experimental group) for a total of 144 mice at day +4—Behavioral tests were performed 1 h after dosing.
Detailed protocol: Immediate spatial working memory performance was assessed by recording spontaneous alternation behavior in a Y-maze. The maze is made of opaque Plexiglas and each of the three arms is 40 cm long, 14 cm high, 10 cm wide and positioned at equal angles. The apparatus is placed in a homogeneously lit test room to obtain 12-15 lux in all arms as well as in the central zone. Mice are placed in the middle of one arm and allowed to explore the maze freely during 5 min session. The series of arm entries are video recorded (Smart v3.0 software, Bioseb) and an arm entry is considered complete when the hind paws of the mouse are completely placed in the arm. Alternation is defined as successive entries into the 3 arms on overlapping triplet sets. […]

[1] = 9 mg/kg/day po, icv vehicle (no AβO)

SMILES	alternation behavior (Y-maze) (ip acute on test day, icv AβO (Group L))	alternation behavior (Y-maze) (per os subchronic, icv AβO (Group C))	alternation behavior (Y-maze) (1 mg/kg/day po, icv AβO)	alternation behavior (Y-maze) (3 mg/kg/day po, icv AβO)	alternation behavior (Y-maze) (9 mg/kg/day po, icv AβO)	alternation behavior (Y-maze) [1]
COc1cc2c(cc1OC)C(=O)C(CC1CCN(Cc3ccccc3)CC1)C2 (stereo not shown) [Donepezil, reference compound]	60.8±1.9%	66.1±1.8%				
COc1cc(N)c(F)cc1C(=O)CCC1CCN(CC2CCCCC2)CC1 [Flucopride]			67.1±2.7%	65.3±4.1%	59.1±3.0%	63.1±2.3%
COc1cc(N)c(Cl)cc1C(=O)CCC1CCN(CC2CCCCC2)CC1 [Donecopride]			56.6±3.7%	65.5±4.4%	64.3±5.1%	59.3±4.0%
